Measurements from patent US20080260896A1 (priority 2007, published 2008).
Marks after values point to notes of the source that are not given here.

Assay: Crude glycerin in finishing cattle diets: carcass merit
Type: in vivo, Angus-cross steers
Conditions: for Adjusted Carcass Live Wt / Backfat Depth / Choice 0 / Choice - / Dress / Hot Carcass Weight / KPH Fat / Live Weight / Marbling Score / Ribeye Area / YG 2 / YG 3 / YG 4 / Yield Grade / Carcass Value: 10% DM glycerin; for Carcass Value: calculated from carcass weight, premiums and discounts
Description: All cattle were adapted on a common 4-step transition prior to initiation of the evaluation. Cattle were blocked by weight (4 blocks) with four pens per treatment (9-10 head/pen). […] Individual weights were collected at 28-day intervals throughout with steers terminated on three harvest dates (days on feed 116 to 153 days) based on weight and condition. Six monthly periods and cumulative (d 1-116 and 1-153) periods were analyzed. […] Carcass value was calculated using actual carcass weight and associated premiums and discounts for quality and yield grades.

[1] = DDGS:Soy Hulls 10:0 diet (Treatment 2)
[2] = DDGS:Soy Hulls 30:15 diet (Treatment 4)

Which “Adjusted Carcass Live Wt” value [1] does the source give for `OCC(O)CO` [crude glycerin, glycerin] here?
Its value is 567.9^a kg.

What about the “Backfat Depth” value [1] of the same compound?
Its value is 1.40 cm.

And the “Choice 0” value [1]?
Its value is 66.7%.

What about the Choice - [1] of the same compound?
Its Choice - is 94.4%.

And the Dress [1]?
The Dress was 61.59%.

What about the “Hot Carcass Weight” value [1] of the same compound?
Its value is 357.7^a kg.

And the “KPH Fat” value [1]?
Its value is 1.90%.

What about the “Live Weight” value [1] of the same compound?
Its value is 581.0^a kg.

What about the “Marbling Score” value [1] of the same compound?
The value was 623.1.

And the “Ribeye Area” value [1]?
Its value is 85.49 sq cm.

And the “YG 2” value [1]?
Its value is 44.4%.

What about the “YG 3” value [1] of the same compound?
The value was 55.6%.

And the “YG 4” value [1]?
The value was 0.0%.

What about the “Yield Grade” value [1] of the same compound?
The value was 3.01.

And the “Carcass Value” [1]?
Its value is 1038.6^a.

And the “Adjusted Carcass Live Wt” value [2]?
The value was 551.4^ab kg.

What about the “Backfat Depth” value [2] of the same compound?
Its value is 1.48 cm.

And the “Choice 0” value [2]?
Its value is 65.0%.

And the Choice - [2]?
The Choice - was 95.0%.

What about the Dress [2] of the same compound?
The Dress was 61.65%.

And the “Hot Carcass Weight” value [2]?
The value was 347.4^ab kg.

And the “KPH Fat” value [2]?
Its value is 1.87%.

And the “Live Weight” value [2]?
Its value is 563.3^ab kg.

What about the “Marbling Score” value [2] of the same compound?
Its value is 630.1.

And the “Ribeye Area” value [2]?
The value was 84.86 sq cm.

What about the “YG 2” value [2] of the same compound?
Its value is 45.0%.

What about the “YG 3” value [2] of the same compound?
Its value is 55.0%.

What about the “YG 4” value [2] of the same compound?
Its value is 0.0%.

What about the “Yield Grade” value [2] of the same compound?
The value was 3.07.

And the “Carcass Value” [2]?
Its value is 1008.5^ab.

What about the “Adjusted Carcass Live Wt” value (main effect over both diets) of the same compound?
Its value is 559.6 kg.

What about the “Backfat Depth” value (main effect over both diets) of the same compound?
The value was 1.44 cm.

And the “Choice 0” value (main effect over both diets)?
Its value is 65.8%.

What about the Choice - (main effect over both diets) of the same compound?
The Choice - was 94.7%.

What about the Dress (main effect over both diets) of the same compound?
The Dress was 61.62%.

And the “Hot Carcass Weight” value (main effect over both diets)?
Its value is 352.6 kg.

And the “KPH Fat” value (main effect over both diets)?
Its value is 1.88%.

What about the “Live Weight” value (main effect over both diets) of the same compound?
The value was 572.2 kg.

And the “Marbling Score” value (main effect over both diets)?
The value was 626.6.

And the “Ribeye Area” value (main effect over both diets)?
Its value is 85.18 sq cm.

What about the “YG 2” value (main effect over both diets) of the same compound?
Its value is 44.7%.

And the “YG 3” value (main effect over both diets)?
The value was 55.3%.

And the “YG 4” value (main effect over both diets)?
Its value is 0.0%.

And the “Yield Grade” value (main effect over both diets)?
The value was 3.04.

What about the “Carcass Value” (main effect over both diets) of the same compound?
Its value is 1023.5.

And the “final and hot carcass weight, ribeye area, carcass value versus control” value (steers fed 10% crude glycerin)?
Its value is “tended (P<0.10) to have greater final and hot carcass weight, ribeye area, and resulting carcass value”.
